Entries after “also recorded” stand apart in the source; their conditions may differ.
Experiments:
H9 cells = assay: Survival/viability of HIV-infected H9 cells (trypan blue exclusion), % control; settings: for viability at 0.01 µg/mL / viability at 0.1 µg/mL / viability at 1 µg/mL / viability at 10 µg/mL / viability at 5 µg/mL: Homo sapiens, H9, 96 h, read-out: Cell Survival (% Control); for viability of cells in the presence of HIV (in words): in vitro
HIV virus = settings: for inhibition of viral replication (in words): about 1 μg/ml; for activity against HIV / inhibition of viral replication (in words): in vitro
Solubility = assay type: physicochemical; settings: Tables I-III
target cells = assay: Toxicity to the cells; assay type: cell-based

Compound | Cell Survival (% Control) (H9 cells; Table IV, conc. not printed (line between 10 and 0.1), added with HIV, 4 days) | viability at 0.01 µg/mL (H9 cells) | viability at 0.1 µg/mL (H9 cells) | viability at 1 µg/mL (H9 cells) | viability at 10 µg/mL (H9 cells) | viability at 5 µg/mL (H9 cells) | viability of cells in the presence of HIV (in words) (H9 cells) | inhibition of viral replication (in words) (HIV virus) | activity against HIV / inhibition of viral replication (in words) (HIV virus) | Solubility (Solubility) | toxicity to the cells (in words) (target cells) | effect against HIV infection at noncytotoxic doses (in words) (HIV virus)
C[C@@H]1[C@H](O)[C@@H](C)/C=C/C=C/CC/C=C/C=C/C=C/C=C/[C@H](O[C@@H]2O[C@H](C)[C@@H](O)[C@H](N)[C@@H]2O)C[C@@H]2O[C@](O)(C[C@@H](O)C[C@@H](O)[C@H](O)CC[C@@H](O)C[C@@H](O)CC(=O)O[C@H]1C)C[C@H](O)[C@H]2C(=O)O [Amphotericin A, reference compound] | 75 % Control |  |  |  |  |  |  |  |  |  |  | 
C[C@@H]1[C@H](O)[C@@H](C)/C=C/C=C/C=C/C=C/C=C/C=C/C=C/[C@H](O[C@@H]2O[C@H](C)[C@@H](O)[C@H](N)[C@@H]2O)C[C@@H]2O[C@](O)(C[C@@H](O)C[C@@H](O)[C@H](O)CC[C@@H](O)C[C@@H](O)CC(=O)O[C@H]1C)C[C@H](O)[C@H]2C(=O)O [Amphotericin B, reference compound] |  | 13% | 11% | 33% | 73% |  |  |  |  |  |  | 
CC(C)C1OC(=O)/C=C/C=C/C=C/C=C/C=C/C=C/CC(O)C(C)C(O)CC(O)CC(O)CC(O)CC(O)CC(O)CC(O)CC(O)/C=C/C1C (stereo not drawn) [Dermostatin A] |  | 0% | 18% | 92% |  | 99% | improve the viability of lymphocyte cells in the presence of HIV; also recorded: protective effect | high levels of inhibition to viral replication have been achieved | inhibit the ability of the HIV virus to replicate within the lymphocyte after penetration by the virus | Soluble in MeOH, DMSO, DMF; also recorded: Insoluble in H2 O, pet ether, hexane |  | 
CCC(C)C1OC(=O)/C=C/C=C/C=C/C=C/C=C/C=C/CC(O)C(C)C(O)CC(O)CC(O)CC(O)CC(O)CC(O)CC(O)CC(O)/C=C/C1C (stereo not drawn) [Dermostatin B] |  | 0% | 0% | 87% |  | 97% | improve the viability of lymphocyte cells in the presence of HIV; also recorded: protective effect | high levels of inhibition to viral replication have been achieved | inhibit the ability of the HIV virus to replicate within the lymphocyte after penetration by the virus | Soluble in MeOH, DMSO, DMF; also recorded: Insoluble in H2 O, pet ether, hexane |  | 
CCCCC[C@@H](O)[C@H]1C(=O)O[C@H](C)[C@@H](O)/C=C/C=C/C=C/C=C/C=C(\C)[C@@H](O)C[C@H](O)C[C@H](O)C[C@H](O)C[C@H](O)C[C@H](O)C[C@@H]1O [Filipin, reference compound] |  |  | 48% | 51% | 49% |  |  |  | not active against HIV |  |  | 
Candicidin |  |  |  |  |  |  |  |  |  |  | toxic to the cells; also recorded: its own cytotoxic effects takes its toll on the target cells | no advantage whatsoever is seen

From patent publication US5159002A, “Method for purifying dermostatin A and dermostatin B” (Xechem Inc., priority 1990, dated 1992)
